From EP0382538A2, “A process for the preparation of cysteine-rich polypeptides, including echistatin” (MERCK & CO. INC., priority 1989, dated 1990)

Legend:
[1] = tested on: HUMAN PLATELET AGGREGATION; test: Platelet aggregation assay (ADP-initiated, fibrinogen-dependent, Chronolog aggregometer); type: cell-based; details: inhibition of rate of human platelet aggregation by 50%; washed platelets 2 x 10⁸/ml, fibrinogen 100 µg/mL, Ca²⁺ 1 mM, 10 µM ADP, 37°C; platelets from 2-4 donors, duplicate; read-out: IC₅₀(µM) (95% CONFIDENCE LIMITS)
Protocol: Platelet aggregation was measured at 37°C in a Chronolog aggregometer. The reaction mixture contained washed platelets (2 x 10⁸/ml), fibrinogen (100 µg/mL), Ca²⁺ (1 mM), and the platelet aggregation inhibitor fraction to be tested. The aggregation was initiated by adding 10 µM ADP 1 min after the other components had been added. The reaction was allowed to proceed for at least 2 min. The extent of inhibition of aggregation was expressed as the percentage of the rate of aggregation observed in the absence of inhibitor. […]
The concentration of peptide necessary to inhibit the rate of human platelet aggregation by 50% (IC₅₀) was determined using platelets from 2-4 donors. Determinations were performed in duplicate for each donor.

[2] = tested on: platelet aggregation; test: Platelet aggregation initiated by other agonists; type: cell-based; details: aggregation initiated by thrombin, epinephrin, collagen, or platelet activating factor
[3] = Preliminary in vivo antithrombotic studies

Echistatin [Synthetic Echistatin]
IC50 [1]: 0.033 µM | prevention of platelet aggregation [2]: prevents aggregation | antithrombotic effect in vivo [3]: very effective antithrombotic agent
